Experimental data reported in patent publication US20030186423A1, “Amidase from variovorax” (Degussa AG, priority 2001, published 2003).

Tests used:
Format in all cases: biochemical, Variovorax paradoxus
D-amidase [1] = assay: Enzyme test for amino acid amides and α-hydroxycarboxylic acid amides (HPLC or NH4+ determination); conditions: substrate 40 mM
Protocol: For prolinamide, and the α-hydroxycarboxylic acid amides lactic acid amide (Lac-NH2) and 2-hydroxy-4-methylmercaptobutyric acid amid (MHA-NH2), the methionine-analogous α-hydroxycarboxylic acid amide, determination of the product with the previous HPLC analysis is not possible. For these substrates, the activity was determined with the aid of NH4^+ determination. […] All the substrates were employed in the enzyme test at 40 mM. In the 4th column, for further comparison the activity for the lower enantiomer has been set at 1 and a relative activity for the preferred enantiomer has been calculated therefrom.
(§1) In the conversion of tert-leucinamide (gen. acid amides) by the D-amidase, the formation of ammonia or ammonium ions and tert-leucine (gen. acid) in equimolar amounts occurs. […] The change in concentration of the components participating can be measured in an enzyme test, which comprises incubation of the following test batch for 10-60 minutes at 30° C.
(§2) The enzyme test was started by addition of the substrate and the reaction was stopped by heating at 95° C. for three minutes. The analysis of the reaction products was carried out for ammonium ions by enzymatic determination of ammonium by glutamate dehydrogenase (Bergmeyer, H.,U., and Beutler, H.-O. (1985) Ammonia. In: Methods of Enzymatic Analysis. VCH-Verlag, 3rd edition, vol. 8: 454-461, Weinheim) and for D- and L-tert-leucine by means of HPLC (Bruckner, H., Wittner R., and Godel H., (1991) Fully automated high-performance liquid chromatographic separation of DL-amino acids derivatized with o-phthaldialdehyde together with N-isopropyl-cysteine. Application to food samples. Anal. Biochem. 144(1): 204-206). Batches to which no substrate were added served as controls.
(§3) The separation and quantitative determination of the enantiomers D- and L-tert-leucine were carried out by a “chiral derivatization” on the basis of o-phthaldialdehyde (OPA)/N-isobutyryl-L-cysteine or N-isobutyryl-D-cysteine (Brückner, H.; Wittner R. and Godel H. (1991), Fully automated high-performance liquid chromatographic separation of DL-amino acids derivatized with o-Phthaldialdehyde together with N-isopropyl-cysteine. Application to food samples. Anal. Biochem. 144, 204-206). The diastereomeric isoindole derivatives formed were separated on an RP-18 (reversed phase) column and detected by fluorescence. A two-buffer system of aqueous acetate buffer and an acetonitrile/water mixture was used as the mobile phase.

D-amidase [2] = assay: Enzyme test for acid amides, activity by determination of ammonium ions with glutamate dehydrogenase; conditions: substrate 40 mM
Protocol: The activity was measured by determination of the ammonium ions with glutamate dehydrogenase (Bergmeyer, H. U., and Beutler, H.-O. (1985), Ammonia. In: Methods of Enzymatic Analysis. VCH-Verlag, 3rd edition, vol. 8: 454-461, Weinheim). […] The substrates were employed in the enzyme test at 40 mM, except for succinic acid diamide and adipic acid diamide, each at 10 mM, and benzylamide at 20 mM. Since the activities were determined only at in each case one substrate concentration, relative activities are stated.
as §1, §2
(§4) The enzyme glutamate dehydrogenase (GluDH; E.C.1.4.1.3) converts 2-oxoglutarate into L-glutamate, ammonium ions being consumed and NADH being oxidized to NAD+(Bergmeyer, H.,U. and Beutler, H.-O. (1985), Ammonia. In: Methods of Enzymatic Analysis. VCH-Verlag, 3rd edition, vol. 8: 454-461, Weinheim). The amount of NADH consumed during the reaction is equivalent to the amount of ammonium ions. The change in the concentration of NADH is the measurement parameter and can be determined spectrophotometrically at a wavelength of 340 nm.
The test components were pipetted into cells of plastic (1.5 ml semimicro disposable cells, Brand) and mixed and the extinction at 340 nm was determined after 5 min. 10 μl GluDH were then added, and after the reaction had gone to completion, as a rule after 30 min, the extinction was measured again.

D-amidase [3] = assay: Kinetic cleavage of racemic amino acid amides: enantioselectivity as a function of the conversion
Protocol: To evaluate the suitability for kinetic cleavage of racemic DL-Tle-NH2, the enantioselectivity was determined as a function of the conversion.
DL-Valin-, DL-leucin- and DL-phenylalaninamide were alos tested in this respect. For this, the enantioselectivity was determined as function of the conversion with partly purified enzyme from Variovorax paradoxus 19-3 after the 1st chromatography step.
as §3

D-amidase [4] = assay: Enzyme test for N-formylated amino acid amides, NH4+ determination with glutamate dehydrogenase
Protocol: as §4, with “The cleavage of racemic N-formylated amino acid amides was investigated by using the D-amidase according to the invention. The enzyme used was a partly purified D-amidase after the 1st chromatography step. The activity was measured by determining the NH4^+ ions with glutamate dehydrogenase (Bergmeyer, H. U., and Beutler, H.-O. (1985), Ammonia. In: Methods of Enzymatic Analysis. VCH-Verlag, 3rd edition, vol. 8: 454-461, Weinheim). The following substrates were employed in the enzyme test at 10 mM. The enzyme” for “The enzyme”

D-amidase [5] = assay: Specific activity of crude extracts and purified D-amidase for DL-Tle-NH2; conditions: DL-Tle-NH2 as the substrate
Protocol: as §1, §2

Structure (SMILES): CC(C)(C)C(N)C(N)=O (racemic) [DL-Tle-NH2, D,L-tert-Leucinamide]
- Activity with respect to Tle-NH2 (D-amidase [1]; DL-Tle-NH2 = 1): 1
- Specific activity (D-amidase [1]; partly purified D-amidase after the 2nd chromatography step (0.56 U/mg), Pro-, Lac-, MHA-NH2 by NH4+ determination): 0.56 U/mg
- Activity with respect to Tle-NH2 (D-amidase [2]; DL-Tle-NH2 = 1): 1
- Relative act. (D-amidase [2]; partly purified D-amidase after the 2nd chromatography step (0.51 U/mg)): 0.51 U/mg
- E value (D-amidase [3]; both series of experiments (partly purified and virtually homogeneous enzyme)): greater than 100
- enantioselectivity with respect to D-Tle (D-amidase [3]; partly purified enzyme after the 1st chromatography step, conversion of greater than 45%): 96.6%
- Activity with respect to Tle-NH2 (D-amidase [4]; Table 4, DL-Tle-NH2 = 100): 100%
- Relative act. (D-amidase [4]; Table 4, substrate 10 mM, partly purified D-amidase after the 1st chromatography step): 200 mU/mg
- Specific activity (D-amidase [5]; D-amidase after the first two purification steps): 0.68 U/mg
- Specific activity (D-amidase [5]; crude extract of E. coli JM 101 expression clones): 80-210 mU/mg
- Specific activity (D-amidase [5]; homogeneously purified D-amidase from Variovorax paradoxus): 1.4 U/mg

Structure (SMILES): CC(C)[C@H](N)C(N)=O (racemic) [DL-Val-NH2, valinamide]
- E value (D-amidase [3]; conversion 3%): 190
- ee D-Val (D-amidase [3]; conversion 3%, partly purified enzyme after the 1st chromatography step): 98.9%
- E value (D-amidase [3]; conversion 15%): 180
- ee D-Val (D-amidase [3]; conversion 15%, partly purified enzyme after the 1st chromatography step): 98.7%
- E value (D-amidase [3]; conversion 29%): 200
- ee D-Val (D-amidase [3]; conversion 29%, partly purified enzyme after the 1st chromatography step): 98.5%
- E value (D-amidase [3]; conversion 42%): 220
- ee D-Val (D-amidase [3]; conversion 42%, partly purified enzyme after the 1st chromatography step): 98.1%
- E value (D-amidase [3]; conversion 50%): 140
- ee D-Val (D-amidase [3]; conversion 50%, partly purified enzyme after the 1st chromatography step): 95.1%
- E value (D-amidase [3]; conversion 57%): 56
- ee D-Val (D-amidase [3]; conversion 57%, partly purified enzyme after the 1st chromatography step): 75.0%
- Activity with respect to Tle-NH2 (D-amidase [4]; Table 5, DL-Val-NH2 = 100): 100%
- Relative act. (D-amidase [4]; Table 5, comparison of valinamide and N-formyl-valinamide): 870 mU/mg
